Test results published in patent US20050118381A1, “Diimonium salt mixtures, aminium salts mixtures and use thereof” (priority 2002, published 2005).
One block for each compound: values may come before it.

How the values were obtained:
Format in all cases: physicochemical
[1] = Heat resistance stability test of near-infrared absorption filter coat film
Protocol: (§1) 1.2 parts of compound No. 1a (Sample 1X), No. 6a (Sample 2X) and No. 15a (Sample 3X) was each dissolved in 18.8 parts of MEK. To the solution was added 80 parts of a resin solution obtained by dissolving 25 parts of an acrylic resin (Dianal BR-80, available from Mitsubishi Rayon Co., Ltd.) in 75 parts of MEK to prepare a coating solution. The coating solution was applied to a polyester film in a thickness of 2 to 4 μm and dried at 80° C. to obtain the near-infrared absorption filter of the present invention.
(§2) The obtained coat film was subjected to a heat resistance stability test in a hot air dryer at 80° C. for a predetermined time and a moisture heat resistance stability test in a temperature and humidity controlled apparatus under conditions of 60° C. and 95% RH for a predetermined time. In addition, Samples 1X and 2X were subjected to a lightfastness test using a weatherometer (Ci4000, made by Atlas Electric Devices Co.) under conditions of light source output: 0.36 W/m^2, bath temperature: 24° C., black panel temperature: 40° C. and humidity: 30% RH for 50 hours. After the tests, the color of the film was measured by an ultraviolet/visible light spectrophotometer (UV-2100, made by Shimadzu Corporation) to calculate L*, a*, b* values and stability was evaluated from the variation of the b* value. The results of heat resistance test are shown in Table 9, the results of the moisture heat resistance test are shown in Table 10 and the results of the lightfastness test are shown in Table 11.
(§3) Coat films were prepared and evaluated in the same manner except that hexafluoroantimonate of tetrakis{p-di(n-butyl)aminophenyl}phenylenediimonium (Comparative Sample 1X) and hexafluoroantimonate of tetrakis{p-di(3-cyanopropyl)aminophenyl}phenylenediimonium (Comparative Sample 2X) were used instead of the above compounds.

[2] = Solubility test of diimonium salt compound
Protocol: Solubility of compounds No. 1a, No. 3a, No. 6a, No. 2a, No. 7a, No. 13a and No. 12a obtained in the above Examples in diacetone alcohol (DAA), methyl ethyl ketone (MEK) and cyclohexanone was measured. Measurement of solubility was conducted in the same manner except that hexafluoroantimonate of tetrakis{p-di(3-cyanopropyl)aminophenyl}phenylenediimonium (Comparative Sample 1) was used instead of the above compounds.

[3] = Solubility test of aminium salt compound
Protocol: Solubility of Compounds No. 1b, No. 3b, No. 4b, No. 6b, No. 7b, No. 12b, No. 13b, No. 14b and No. 15b obtained in the above Examples in diacetone alcohol (DAA), methyl ethyl ketone (MEK), tetrahydrofuran (THF) and methylcellosolve was measured. Measurement of solubility was conducted in the same manner except that hexafluoroantimonate of tetrakis{p-di(3-cyanopropyl)aminophenyl}phenyleneaminium (Comparative Sample 2) and hexafluorophosphate thereof (Comparative Sample 3) were used instead of the above compounds.

[4] = Moisture heat resistance stability test of near-infrared absorption filter coat film; conditions: acrylic resin coat film
Protocol: as §1, §2, §3

[5] = Lightfastness test of dye film containing aminium salt compound
Protocol: (§4) 0.3 part of cyanine dye (OM-57) was dissolved in 15 parts of tetrafluoropropanol and 0.04 part of compound No. 2b was added to the solution to prepare coating. The obtained coating was spin coated on a polycarbonate substrate to prepare a dye film (Sample 1Z). The obtained dye film was subjected to a lightfastness test using a weatherometer (Ci4000, made by Atlas Electric Devices Co.) under conditions of light source output: 0.36 W/m^2, bath temperature: 24° C., black panel temperature: 40° C. and humidity: 30% RH for 150 hours, by applying light from the substrate side. Then the residual ratio of the cyanine dye was measured by a spectrophotometer.
Further, dye films were prepared and evaluated in the same manner except that compounds of No. 3b (Sample 2Z), No. 4b (Sample 3Z) and No. 7b (Sample 4Z) and compound No. 12b (Sample 5Z) were used instead of compound No. 2b, and the results are shown in Table 13.
For comparison, a dye film was prepared and evaluated in the same manner except that hexafluoroantimonate of tetrakis{p-di(n-butyl)aminophenyl}phenylenediimonium (Comparative Sample 1Z) was used instead of compound No. 2b.

[6] = Lightfastness test of near-infrared absorption filter coat film; conditions: acrylic resin coat film
Protocol: as §1
The obtained coat film was subjected to a heat resistance stability test in a hot air dryer at 80° C. for a predetermined time and a moisture heat resistance stability test in a temperature and humidity controlled apparatus under conditions of 60° C. and 95% RH for a predetermined time. […] After the tests, the color of the film was measured by an ultraviolet/visible light spectrophotometer (UV-2100, made by Shimadzu Corporation) to calculate L*, a*, b* values and stability was evaluated from the variation of the b* value. […]
as §3

[7] = Lightfastness test of dye film containing diimonium salt compound
Protocol: as §4, with “2a” for “2b”, “1Y).” for “1Z).”, “50” for “150”
Further, dye films were prepared and evaluated in the same manner except that compounds of No. 3a (Sample 2Y), No. 7a (Sample 3Y) and No. 10a (Sample 4Y), compounds of No. 12a (Sample 5Y) and No. 13a (Sample 6Y) and compound No. 19a (Sample 7Y) were used instead of compound No. 2a, and the results are shown in Table 12.
For comparison, a dye film was prepared and evaluated in the same manner except that hexafluoroantimonate of tetrakis{p-di(n-butyl)aminophenyl}phenylenediimonium (Comparative Sample 1Y) was used instead of compound No. 2a.

[8] = dye film: 0.3 part OM-57 + 0.04 part compound on polycarbonate, before irradiation

solubility in MEK (film preparation) ([1]; 1.2 parts in 18.8 parts of MEK, impossible to prepare a film): poor
solubility cyclohexane ([2]; column head cyclohexane (text: cyclohexanone)): insoluble
solubility DAA ([2]; in diacetone alcohol (DAA)): insoluble
solubility MEK ([2]; in methyl ethyl ketone (MEK)): insoluble
Compound: hexafluoroantimonate of tetrakis{p-di(3-cyanopropyl)aminophenyl}phenylenediimonium [Comparative Sample 1]

solubility DAA ([3]; in diacetone alcohol (DAA)): 1.2 wt %
solubility MEK ([3]; in methyl ethyl ketone (MEK)): 1.7 wt %
solubility THF ([3]; in tetrahydrofuran (THF)): insoluble
Compound: hexafluoroantimonate of tetrakis{p-di(3-cyanopropyl)aminophenyl}phenyleneaminium [Comparative Sample 2]

b* value after 4 days ([4]; 60° C. and 95% RH, 4 days): 4.23
b* value after 7 days ([4]; 60° C. and 95% RH, 7 days): 4.69
b* value after 14 days ([4]; 60° C. and 95% RH, 14 days): 5.55
b* value initial stage ([4]; before 60° C. and 95% RH): 2.85
residual ratio of cyanine dye initial stage [5, 8]: 100%
residual ratio of cyanine dye after 150 hours ([5]; dye film: 0.3 part OM-57 + 0.04 part compound, weatherometer 0.36 W/m^2, 150 hours): 29%
b* value initial stage ([6]; before weatherometer): 2.85
b* value after 50 hours ([6]; weatherometer 0.36 W/m^2, 24° C., 30% RH, 50 hours): 6.49
b* value initial stage ([1]; acrylic resin coat film on polyester film, before hot air dryer 80° C.): 2.85
b* value after 4 days ([1]; acrylic resin coat film, hot air dryer 80° C., 4 days): 3.65
b* value after 7 days ([1]; acrylic resin coat film, hot air dryer 80° C., 7 days): 3.93
b* value after 14 days ([1]; acrylic resin coat film, hot air dryer 80° C., 14 days): 4.30
residual ratio of cyanine dye initial stage [7, 8]: 100%
residual ratio of cyanine dye after 50 hours ([7]; dye film: 0.3 part OM-57 + 0.04 part compound, weatherometer 0.36 W/m^2, 50 hours): 69%
Compound: CCCCN(CCCC)c1ccc([N+](=C2C=CC(=[N+](c3ccc(N(CCCC)CCCC)cc3)c3ccc(N(CCCC)CCCC)cc3)C=C2)c2ccc(N(CCCC)CCCC)cc2)cc1.[F][Sb-]([F])([F])([F])([F])[F].[F][Sb-]([F])([F])([F])([F])[F] [Comparative Sample 1X, hexafluoroantimonate of tetrakis{p-di(n-butyl)aminophenyl}phenylenediimonium]
